This note sets out measurements from patent US11492341B2, “ACLY inhibitors and uses thereof” (Nimbus Artemis, Inc., priority 2018, dated 2022).

SMILES strings stand for the structures.

ACL, sequence (P53396 whole entry, species assumed): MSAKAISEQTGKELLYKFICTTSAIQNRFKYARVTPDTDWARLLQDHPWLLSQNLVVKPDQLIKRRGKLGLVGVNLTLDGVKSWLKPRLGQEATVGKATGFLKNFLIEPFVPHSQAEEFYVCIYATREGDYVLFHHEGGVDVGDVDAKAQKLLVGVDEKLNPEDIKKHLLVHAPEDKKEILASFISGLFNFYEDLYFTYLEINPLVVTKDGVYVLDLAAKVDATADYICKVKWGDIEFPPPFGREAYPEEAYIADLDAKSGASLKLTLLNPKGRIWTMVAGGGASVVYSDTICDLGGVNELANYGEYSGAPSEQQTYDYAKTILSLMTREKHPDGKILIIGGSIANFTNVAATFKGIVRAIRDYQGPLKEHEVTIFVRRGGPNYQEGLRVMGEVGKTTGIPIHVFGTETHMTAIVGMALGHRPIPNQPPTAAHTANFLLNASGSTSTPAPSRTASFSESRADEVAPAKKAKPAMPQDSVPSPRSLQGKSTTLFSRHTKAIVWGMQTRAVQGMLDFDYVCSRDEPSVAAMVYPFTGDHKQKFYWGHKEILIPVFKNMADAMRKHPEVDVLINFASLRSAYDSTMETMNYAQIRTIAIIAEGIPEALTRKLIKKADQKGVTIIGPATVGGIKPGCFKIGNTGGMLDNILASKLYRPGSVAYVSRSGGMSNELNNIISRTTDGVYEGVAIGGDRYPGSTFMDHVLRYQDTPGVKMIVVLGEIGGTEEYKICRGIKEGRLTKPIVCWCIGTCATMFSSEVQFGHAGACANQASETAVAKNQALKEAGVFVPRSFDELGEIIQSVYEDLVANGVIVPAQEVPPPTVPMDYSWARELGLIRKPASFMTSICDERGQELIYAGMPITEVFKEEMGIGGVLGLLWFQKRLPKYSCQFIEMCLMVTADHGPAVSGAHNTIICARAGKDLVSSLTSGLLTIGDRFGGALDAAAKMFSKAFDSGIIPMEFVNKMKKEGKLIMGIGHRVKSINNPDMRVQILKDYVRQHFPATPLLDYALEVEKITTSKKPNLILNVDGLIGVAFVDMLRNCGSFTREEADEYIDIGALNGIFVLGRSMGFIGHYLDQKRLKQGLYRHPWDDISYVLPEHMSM

For this assay, the target named is ACL (Homo sapiens (Human), UniProt P53396). Briefly: ADP-Glo Assay. The class given is biochemical. The conditions noted are these: 3 nM ACL, 15 μM ATP, 3 μM CoA, 300 μM Citrate. The procedure:
Example 28. ADP-Glo Assay
Compounds of the present invention were evaluated in an ADP-GLO assay as follows: a) Dilute cpd 1:3 in succession in DMSO by hand for each cpds for 12 pts b) Add 0.1 μL diluted cpd solution to assay plate, each dose with 2 replicates c) Centrifuge 1000 RPM for 1 min d) Add 5 μL ACL working solution to 384-well assay plate, centrifuge 1000 RPM for 1 min e) Incubate at 25° C. for 15 min f) Add 5 μL substrate working solution to initiate reaction g) Final ACL reaction concentrations: 3 nM ACL, 15 μM ATP, 3 μM CoA, 300 μM Citrate, 0.01% Brij35, 4 mM DTT, 1% DMSO; h) Reference final conc: 30 uM starting Conc, 3× dilution, 11+0 points. Test cpd conc: 30/100 uM starting Conc, 3× dilution, 11+0 points. i) Incubate at 25° C. for 60 min j) Add 10 μL ADP Glo reagent, centrifuge 1000 RPM for 1 min k) Incubate at 25° C. for 40 min l) Add 20 μL kinase detection reagent, centrifuge 1000 RPM for 1 min m) Incubate at 25° C. for 40 min n) Read on Envision for US LUM as RLU
Background: ADP-Glo first removes unused ATP, then detects ADP through luciferase.
What is called IC50 is the concentration at which inhibition is half-maximal. Low values mean inhibition by little substance, high ones a need for much substance. The compound `COC(=O)c1ccc2c(c1)cc(-c1ccccc1)n2S(=O)(=O)c1cc(F)cc(F)c1` [I-114] showed a concentration for half-maximal inhibition (IC50) not below 20 µM.

As to `O=S(=O)(c1cc(Cl)cc(Cl)c1O)N1Cc2cnn(-c3ccccc3)c2C1` [I-7], the IC50 lay within 0.5 to 20 µM.

In the case of `O=S(=O)(c1cc(F)cc(F)c1O)n1c(-c2ccncc2)cc2cc(Cl)ccc21` [I-93], the IC50 lay within 0.5 to 20 µM.

Regarding `CN(C)C(=O)c1ccc(-c2cc3cc(Cl)ccc3n2S(=O)(=O)c2cc(Br)cc(Cl)c2O)cc1` [I-50, 4-(1-((5-bromo-3-chloro-2-hydroxyphenyl)sulfonyl)-5-chloro-1H-indol-2-yl)-N,N-dimethylbenzamide], the IC50 fell in the range of 0.5 to 20 µM.

Turning to `Cn1cc(-c2cc3cc(C#N)ccc3n2S(=O)(=O)c2cc(F)cc(F)c2O)cn1` [I-118], the half-maximal inhibitory concentration (IC50) is not below 20 µM.

On to `Cc1ccc2c(c1)cc(-c1cncnc1)n2S(=O)(=O)c1cc(F)cc(F)c1O` [I-92], for which the IC50 was 0.5 to 20 µM.

With `O=S(=O)(c1cc(Br)cc(Cl)c1O)n1c(-c2ccccc2)cc2ccccc21` [I-23, 4-bromo-2-chloro-6-((2-phenyl-1H-indol-1-yl)sulfonyl)phenol], the IC50 was in the range of 0.5 to 20 µM.

In the case of `O=C(O)c1cc(C(=O)O)c(O)c(S(=O)(=O)n2c(-c3ccccc3)cc3cc(Cl)ccc32)c1` [I-121], the half-maximal inhibitory concentration (IC50) is 0.5 to 20 µM.

Regarding `O=S(=O)(c1cc(Br)cc(Cl)c1O)n1c(Cc2ccccc2OC(F)(F)F)cc2cc(Cl)ccc21` [I-151], the IC50 is 0.5 to 20 µM.

`CCOC(=O)c1cc2cc(Cl)ccc2n1S(=O)(=O)c1cc(Cl)cc(Cl)c1` [I-108] gave an IC50 not below 20 µM.

`O=c1[nH]cc(Cl)cc1S(=O)(=O)n1c(-c2ccccc2)cc2cc(Cl)ccc21` [I-65, 5-chloro-3-((5-chloro-2-phenyl-1H-indol-1-yl)sulfonyl)pyridin-2(1H)-one] gave an IC50 of 0.5 to 20 µM.

Take `Cc1nccnc1-c1cc2cc(Cl)ccc2n1S(=O)(=O)c1cc(F)cc(F)c1O` [I-135]: the IC50 was in the range of 0.5 to 20 µM.

`COc1ncc(-c2cc3cc(Cl)ccc3n2S(=O)(=O)c2cc(F)cc(F)c2O)cn1` [I-138] gave a 50% inhibitory concentration (IC50) of 0.5 to 20 µM.

With `COc1ccc2c(c1)cc(-c1ccccc1)n2S(=O)(=O)c1cc(Br)cc(Cl)c1O` [I-31, 4-bromo-2-chloro-6-((5-methoxy-2-phenyl-1H-indol-1-yl)sulfonyl)phenol], the IC50 lay in the range of 0.5 to 20 µM.

The compound `O=S(=O)(c1cc(Cl)cc(Cl)c1O)N1CC2(CCOCC2)c2ccccc21` [I-6] yielded a concentration for half-maximal inhibition (IC50) of 0.5 to 20 µM.

In the case of `O=S(=O)(c1cc(F)cc(F)c1O)n1c(-c2cncnc2)cc2cc(Cl)ccc21` [I-90], the IC50 was 0.5 to 20 µM.

`O=S(=O)(c1cc(F)cc(F)c1O)n1c(-c2cnccn2)cc2cc(Cl)ccc21` [I-105] displayed a half-inhibitory concentration (IC50) of 0.5 to 20 µM.

In the case of `N#Cc1cc(Cl)c(O)c(S(=O)(=O)n2c(-c3ccccc3)cc3cc(Cl)ccc32)c1` [I-78], the half-inhibitory concentration (IC50) lay within 0.5 to 20 µM.

In turn, `O=S(=O)(c1cc(F)ccc1O)n1c(-c2ccccc2)cc2cc(Cl)ccc21` [I-76] came in with an IC50 of 0.5 to 20 µM.

On to `CN(C)C(=O)c1ccc(-c2cc3cc(Cl)ccc3n2S(=O)(=O)c2cc(Cl)cc(Cl)c2O)cc1` [I-60], for which the IC50 lay within 0.5 to 20 µM.

Compound `N#Cc1ccc2c(c1)cc(-c1cnc[nH]1)n2S(=O)(=O)c1cc(F)cc(F)c1O` [I-83] registered an IC50 of 0.5 to 20 µM.

As for `O=C(O)c1cc(Br)cc(S(=O)(=O)n2c(-c3ccccc3)cc3cc(Cl)ccc32)c1O` [I-89], the half-inhibitory concentration (IC50) lay in the range of 0.5 to 20 µM.

Take `CN(C)C(=O)c1cccc(-c2cc3cc(Cl)ccc3n2S(=O)(=O)c2cc(Br)cc(Cl)c2O)c1` [I-37]: the concentration for half-maximal inhibition (IC50) fell in the range of 0.5 to 20 µM.

`O=C(O)c1sccc1S(=O)(=O)n1c(-c2ccccc2)cc2cc(Cl)ccc21` [I-71] showed an IC50 of 0.5 to 20 µM.

For the compound `O=S(=O)(c1cc(Cl)cc(Cl)c1O)N1CC2(CCOCC2)C1c1ccccc1` (stereo not shown) [I-19], the concentration for half-maximal inhibition (IC50) fell in the range of 0.5 to 20 µM.

Compound `COCOc1cc2c(cc1Cl)cc(C)n2S(=O)(=O)c1cc(Br)cc(Cl)c1O` [I-150] displayed an IC50 of 0.5 to 20 µM.

Take `COC(=O)c1cc2c(cc1Cl)cc(C)n2S(=O)(=O)c1cc(Br)cc(Cl)c1O` [I-148]: the IC50 lay in the range of 0.5 to 20 µM.

With `Cc1cc2cc(Cl)ccc2n1S(=O)(=O)c1cc(-c2cncs2)cc(Cl)c1O` [I-156], the IC50 fell in the range of 0.5 to 20 µM.

Consider `CC(=O)Nc1ccc2c(c1)CN(S(=O)(=O)c1cc(Cl)cc(Cl)c1O)CC2` [I-13], for which the IC50 lay in the range of 0.5 to 20 µM.

On to `O=C(O)c1ccccc1-c1cc2cc(Cl)ccc2n1S(=O)(=O)c1cc(Br)cc(Cl)c1O` [I-27, 2-(1-((5-bromo-3-chloro-2-hydroxyphenyl)sulfonyl)-5-chloro-1H-indol-2-yl)benzoic acid], for which the concentration for half-maximal inhibition (IC50) is 0.5 to 20 µM.

For the compound `O=S(=O)(c1cc(F)cc(F)c1O)n1c(-c2cc3ccccc3s2)cc2cc(Cl)ccc21` [I-143, 2-((2-(benzo[b]thiophen-2-yl)-5-chloro-1H-indol-1-yl)sulfonyl)-4,6-difluorophenol], the IC50 was in the range of 0.5 to 20 µM.

As to `COc1c(F)cc2cc(C)n(S(=O)(=O)c3cc(Br)cc(Cl)c3O)c2c1F` [I-165], the half-maximal inhibitory concentration (IC50) is 0.5 to 20 µM.

In the case of `O=C(O)c1cc2cc(Cl)ccc2n1S(=O)(=O)c1cc(Cl)cc(Cl)c1O` [I-66], the IC50 was 0.5 to 20 µM.

In the case of `O=S(=O)(c1cc(F)cc(F)c1O)n1c(-c2cnc(O)nc2)cc2cc(Cl)ccc21` [I-140], the IC50 is 0.5 to 20 µM.

Compound `O=S(=O)(c1cc(Cl)cc(Cl)c1O)N1CCC(Cc2ccccc2)C1` (stereo not shown) [I-18] had a concentration for half-maximal inhibition (IC50) of 0.5 to 20 µM.

The compound `O=S(=O)(c1cc(F)cc(F)c1O)n1c(-c2cccnn2)cc2cc(Cl)ccc21` [I-99] showed a half-inhibitory concentration (IC50) of 0.5 to 20 µM.

For `O=S(=O)(c1cc(Cl)cc(Cl)c1O)N1CC(c2nc3ccccc3s2)C1` [I-15], the IC50 was in the range of 0.5 to 20 µM.

In the case of `Cc1c(-c2ccccc2)c2cc(Cl)ccc2n1S(=O)(=O)c1cc(Br)cc(Cl)c1O` [I-46], the IC50 was 0.5 to 20 µM.

`O=S(=O)(c1cc(F)cc(F)c1O)n1c(-c2ccc[n+]([O-])c2)cc2cc(Cl)ccc21` [I-98] had a 50% inhibitory concentration (IC50) of 0.5 to 20 µM.

Regarding `O=S(=O)(c1cc(Br)cc(Cl)c1O)n1c(-c2ccc(OC(F)(F)F)nc2)cc2cc(Cl)ccc21` [I-146], the half-inhibitory concentration (IC50) was in the range of 0.5 to 20 µM.

The compound `O=C(O)Cc1cc2cc(Cl)ccc2n1S(=O)(=O)c1cc(Cl)cc(Cl)c1O` [I-88] showed an IC50 of 0.5 to 20 µM.

`Cc1ccc2c(c1)cc(-c1ccccc1)n2S(=O)(=O)c1cc(Br)cc(Cl)c1O` [I-43] gave an IC50 of 0.5 to 20 µM.

As to `O=S(=O)(c1cc(Br)cc(Cl)c1O)n1c(-c2cnc(C(F)(F)F)nc2)cc2cc(Cl)ccc21` [I-152], the IC50 lay within 0.5 to 20 µM.

As to `O=S(=O)(c1cc(F)cc(F)c1O)n1c(-c2cccnc2)cc2cc(Cl)ccc21` [I-91], the half-inhibitory concentration (IC50) was in the range of 0.5 to 20 µM.

As to `N#Cc1ccc2c(c1)cc(-c1cn[nH]c1)n2S(=O)(=O)c1cc(F)cc(F)c1O` [I-74], the IC50 is 0.5 to 20 µM.

`O=S(=O)(c1cc(Br)cc(Cl)c1O)n1c(-c2cncnc2)cc2cc(Cl)ccc21` [I-24, 4-bromo-2-chloro-6-((5-chloro-2-(pyrimidin-5-yl)-1H-indol-1-yl)sulfonyl)phenol] returned an IC50 of less than 0.5 µM.

On to `CN(C)C(=O)c1ccccc1-c1cc2cc(Cl)ccc2n1S(=O)(=O)c1cc(Br)cc(Cl)c1O` [I-38], for which the IC50 lay within 0.5 to 20 µM.

Consider `N#Cc1ccc2c(c1)cc(-c1cncs1)n2S(=O)(=O)c1cc(F)cc(F)c1O` [I-85], for which the 50% inhibitory concentration (IC50) was 0.5 to 20 µM.

Compound `Cc1cn(S(=O)(=O)c2cc(Br)cc(Cl)c2O)c2ccc(Cl)cc12` [I-147] yielded an IC50 of 0.5 to 20 µM.

In turn, `O=S(=O)(c1cc(F)cc(F)c1O)n1c(-c2ccc(OC(F)(F)F)cc2)cc2cc(Cl)ccc21` [I-51] registered a 50% inhibitory concentration (IC50) of 0.5 to 20 µM.

In turn, `O=S(=O)(c1cc(F)cc(F)c1O)n1c(-c2ccnnc2)cc2cc(Cl)ccc21` [I-103] displayed an IC50 of 0.5 to 20 µM.

`N#Cc1ccc2c(c1)cc(-c1cccc(F)c1)n2S(=O)(=O)c1cc(F)cc(F)c1O` [I-75]: the IC50 lay in the range of 0.5 to 20 µM.

Compound `O=S(=O)(c1cncc(O)c1)n1c(-c2ccccc2)cc2cc(Cl)ccc21` [I-119] displayed a 50% inhibitory concentration (IC50) not below 20 µM.

In turn, `O=S(=O)(c1cc(Cl)cc(Cl)c1O)N1CCOC(COc2ccccc2)C1` (stereo not shown) [I-8] returned an IC50 of 0.5 to 20 µM.

The compound `NC(=O)c1ccc2c(c1)cc(-c1ccccc1)n2S(=O)(=O)c1cc(Cl)cc(Cl)c1O` [I-57] returned an IC50 of 0.5 to 20 µM.

The compound `C[C@@H]1CN(S(=O)(=O)c2cc(Cl)cc(Cl)c2O)C[C@H](C)O1` [I-14] gave a half-maximal inhibitory concentration (IC50) of 0.5 to 20 µM.

On to `O=C(O)c1cccc(-c2cc3cc(Cl)ccc3n2S(=O)(=O)c2cc(Cl)cc(Cl)c2)c1` [I-84], for which the IC50 was 0.5 to 20 µM.

In the case of `COc1ccc(C2CCN(S(=O)(=O)c3cc(Cl)cc(Cl)c3O)C2)cc1` (stereo not shown) [I-11], the concentration for half-maximal inhibition (IC50) is 0.5 to 20 µM.

Turning to `Cc1nc(=O)c2cc(Cl)ccc2n1S(=O)(=O)c1cc(Br)cc(Cl)c1O` [I-155], the IC50 was not below 20 µM.

With `O=S(=O)(c1cc(Br)cc(Cl)c1O)n1c(-c2ccc(OC(F)(F)F)cc2)cc2ccncc21` [I-49, 4-bromo-2-chloro-6-((2-(4-(trifluoromethoxy)phenyl)-1H-pyrrolo[2,3-c]pyridin-1-yl)sulfonyl)phenol], the IC50 fell in the range of 0.5 to 20 µM.

Compound `O=C(c1cc2cc(Cl)ccc2n1S(=O)(=O)c1cc(Br)cc(Cl)c1O)N1CCC1` [I-162] gave a half-maximal inhibitory concentration (IC50) of 0.5 to 20 µM.

`O=S(=O)(c1cccc(Cl)c1O)n1c(-c2ccccc2)cc2cc(Cl)ccc21` [I-63] yielded an IC50 of 0.5 to 20 µM.

Compound `O=S(=O)(c1cc(Br)cc(Cl)c1O)n1cc(-c2cncs2)c2cc(Cl)ccc21` [I-159] showed a concentration for half-maximal inhibition (IC50) of less than 0.5 µM.

The compound `COC(=O)c1cc(Cl)c(O)c(S(=O)(=O)N2CCc3ccc(-c4ccccc4)cc32)c1` [I-2] had a half-maximal inhibitory concentration (IC50) of 0.5 to 20 µM.
